From patent US20250043299A1, “POINT MUTATIONS THAT BOOST AROMATIC AMINO ACID PRODUCTION AND CO2 ASSIMILATION IN PLANTS” (Wisconsin Alumni Research Foundation, priority 2021, published 2025) come the findings set out here.

SMILES strings stand for the structures. Values joined by “and” are separate entries in the source; they are usually repeats but may differ in a detail not shown here. Equal entries are not always repeated.

Experiment [1] addresses DHS3^WT. The experiment can be described thus: DHS enzyme assay, recombinant DHS3^WT. The conditions noted are these: read-out: IC50 of effector molecule on DHS3^WT. The experiment is classed as biochemical, Arabidopsis thaliana. How it is done: (§1) To generate DHS proteins with individual sota mutations via site-directed mutagenesis, these pET28a plasmid templates were diluted by 500-fold, mixed with 0.04 U/μL Phusion DNA polymerase (Thermo Scientific), 0.2 mM deoxynucleoside triphosphates (dNTPs), 1× Phusion reaction buffer (Thermo Scientific), and 0.5 μM forward and reverse mutagenesis primers (Table 10). The PCR reaction was run using the following protocol: 98° C. for 30 s followed by 20 cycles of 10 s at 98° C., 20 s at 70° C., 4.5 min at 72° C. with a final extension at 72° C. for 10 min. The PCR products were purified using a QIAquick Gel Extraction Kit (QIAGEN), treated with FastDigest DpnI (Thermo Scientific) to digest methylated plasmid template DNA for 20 min at 37° C., and transformed into E. coli cells. The mutagenized pET28a plasmids were sequenced to confirm that no errors were introduced during the mutagenesis process.
(§2) The DHS enzyme assays were conducted using the colorimetric method that we recently described (9). Briefly, the enzyme solution (7.7 μl) containing 50 mM Hepes (pH 7.4) was preincubated with an effector molecule(s) at room temperature for 15 min. For assays using recombinant protein and enzyme fractions isolated from plant leaves, 0.01 to 0.1 μg and approximately 50 μg of proteins were used, respectively. […]

Experiment [2] addresses DHS3^G1. The experiment can be described thus: DHS enzyme assay, recombinant DHS3^G1. It is filed as biochemical, Arabidopsis thaliana. How it is done: as §1
(§3) The DHS enzyme assays were conducted using the colorimetric method that we recently described (9). Briefly, the enzyme solution (7.7 μl) containing 50 mM Hepes (pH 7.4) was preincubated with an effector molecule(s) at room temperature for 15 min. For assays using recombinant protein and enzyme fractions isolated from plant leaves, 0.01 to 0.1 μg and approximately 50 μg of proteins were used, respectively. After adding 0.5 μl of 0.1 M dithiothreitol, the samples were further incubated at room temperature for 15 min. During these incubations, the substrate solution containing 50 mM Hepes (pH 7.4), 2 mM MnCl2, 4 mM E4P, and 4 mM PEP at final concentration was preheated at 37° C. The enzyme reaction was started by adding 6.8 μl of the substrate solution, then incubated at 37° C. for 30 min, and terminated by adding 30 μl of 0.6 M trichloroacetic acid. After a brief centrifugation, 5 μl of 200 mM NaIO4 (sodium meta-periodate) in 9 N H3PO4 was added to oxidize the enzymatic product and to incubate at 25° C. for 20 min. To stop the oxidation reaction, 20 μl of 0.75 M NaAsO2 (sodium arsenite), which was dissolved in 0.5 M Na2SO4 and 0.05 M H2SO4, was added and immediately mixed. […]

In experiment [3] the target is T1, DHS1^WT (Arabidopsis thaliana, UniProt P29976).
T1 construct: without the predicted plastid transit peptide (amino acid residues; 49-525, 34-507, and 52-527, respectively); made in house; host or cells: E. coli Rosetta-2
T1 sequence (P29976 49-525): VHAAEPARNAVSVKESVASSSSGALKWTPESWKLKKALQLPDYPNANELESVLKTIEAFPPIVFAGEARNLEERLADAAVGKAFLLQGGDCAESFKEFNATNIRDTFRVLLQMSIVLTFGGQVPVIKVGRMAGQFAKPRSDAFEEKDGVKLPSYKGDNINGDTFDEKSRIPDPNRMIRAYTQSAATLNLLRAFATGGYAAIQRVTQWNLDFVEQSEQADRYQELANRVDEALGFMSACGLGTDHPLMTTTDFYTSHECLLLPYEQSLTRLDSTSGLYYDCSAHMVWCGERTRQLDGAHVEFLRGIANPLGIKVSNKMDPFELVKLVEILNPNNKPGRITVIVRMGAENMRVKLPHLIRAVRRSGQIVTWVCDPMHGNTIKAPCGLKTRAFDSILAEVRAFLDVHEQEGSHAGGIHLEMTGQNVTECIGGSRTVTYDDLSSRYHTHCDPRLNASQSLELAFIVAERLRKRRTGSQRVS
The experiment is described as follows: DHS enzyme assay (colorimetric), recombinant DHS1^WT. The experiment is classed as biochemical. The conditions noted are these: recombinant enzyme; read-out: IC50 of effector molecule on DHS1^WT. How it is done:
as §1, with “To generate recombinant DHS proteins the pET28a vectors carrying the A. thaliana DHS1 (AtDHS1), AtDHS2, or AtDHS3 WT sequence without the predicted plastid transit peptide (amino acid residues; 49-525, 34-507, and 52-527, respectively) were expressed in E. coli Rosetta-2 cells and purified using Ni-affinity chromatography, exactly as was conducted previously (9). To” for “To”
The DHS enzyme assays were conducted using the colorimetric method that we recently described (9). Briefly, the enzyme solution (7.7 μl) containing 50 mM Hepes (pH 7.4) was preincubated with an effector molecule(s) at room temperature for 15 min. For assays using recombinant protein and enzyme fractions isolated from plant leaves, 0.01 to 0.1 μg and approximately 50 μg of proteins were used, respectively. After adding 0.5 μl of 0.1 M dithiothreitol, the samples were further incubated at room temperature for 15 min. During these incubations, the substrate solution containing 50 mM Hepes (pH 7.4), 2 mM MnCl2, 4 mM E4P, and 4 mM PEP at final concentration was preheated at 37° C. The enzyme reaction was started by adding 6.8 μl of the substrate solution, then incubated at 37° C. for 30 min, and terminated by adding 30 μl of 0.6 M trichloroacetic acid. After a brief centrifugation, 5 μl of 200 mM NaIO4 (sodium meta-periodate) in 9 N H3PO4 was added to oxidize the enzymatic product and to incubate at 25° C. for 20 min. To stop the oxidation reaction, 20 μl of 0.75 M NaAsO2 (sodium arsenite), which was dissolved in 0.5 M Na2SO4 and 0.05 M H2SO4, was added and immediately mixed. After 5 min of incubation at room temperature, one-third of the sample solution was transferred to a new tube to be mixed with 50 μl of 40 mM thiobarbituric acid and incubated at 99° C. for 15 min in a thermal cycler. The mixture was added to 600 μl of cyclohexanone in eight-strip solvent-resistant plastic tubes, mixed vigorously, and centrifuged at 4500 g for 3 min to separate water- and cyclohexanone-based layers for the extraction off the developed pink chromophore. The absorbance of the pink supernatant was read at 549 nm with the microplate reader (Infinite 200 PRO, TECAN) to calculate DAHP production with the molar extinction coefficient at 549 nm (ε=549 nm) of 4.5×10^4 M^−1 cm^−1. Reaction mixtures with boiled enzymes were run in parallel and used as negative controls to estimate the background signal.

The target of experiment [4] is DHS3^H1. The experiment can be described thus: DHS enzyme assay, recombinant DHS3^H1. It is filed as biochemical, Arabidopsis thaliana. On the procedure:
as §1, §3

The target of experiment [5] is T2, Arabidopsis thaliana DHS2 (AtDHS2), wild type (DHS2^WT), SEQ ID NO:2 (Arabidopsis thaliana, UniProt Q00218).
T2 construct: without the predicted plastid transit peptide (amino acid residues; 49-525, 34-507, and 52-527, respectively); made in house; host or cells: E. coli Rosetta-2
T2 sequence (Q00218 34-507): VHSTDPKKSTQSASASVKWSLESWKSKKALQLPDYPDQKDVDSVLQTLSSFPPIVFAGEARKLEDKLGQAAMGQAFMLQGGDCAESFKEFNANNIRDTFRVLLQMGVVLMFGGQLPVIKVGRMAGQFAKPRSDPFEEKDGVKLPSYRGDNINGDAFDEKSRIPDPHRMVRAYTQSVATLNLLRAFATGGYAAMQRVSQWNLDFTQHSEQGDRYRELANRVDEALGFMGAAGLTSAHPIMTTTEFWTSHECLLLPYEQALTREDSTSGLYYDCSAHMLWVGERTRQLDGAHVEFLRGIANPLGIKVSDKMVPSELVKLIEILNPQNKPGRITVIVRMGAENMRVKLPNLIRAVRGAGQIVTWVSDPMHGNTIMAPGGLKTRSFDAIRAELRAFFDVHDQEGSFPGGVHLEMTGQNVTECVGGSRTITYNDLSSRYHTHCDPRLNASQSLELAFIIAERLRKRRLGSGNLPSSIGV
The experiment is described as follows: DHS enzyme assay with effector, Arabidopsis DHS2 WT. The settings on record: 4 mM E4P, 4 mM PEP, pH 7.4, 37° C. It is filed as biochemical. On the procedure: as §1, §2

The IC50 is the point on the concentration scale where inhibition reaches its midpoint. Take `O=C(O)Cc1cc(O)ccc1O` [HGA, homogentisate]: the IC50 amounted to 102 µM in experiment [1], 375 µM in experiment [2] (read-out: IC50 of effector molecule on DHS3^G1), 253 µM in experiment [3] and 405 µM in experiment [4] (read-out: IC50 of effector molecule on DHS3^H1).

Consider `O=C(O)C(=O)Cc1ccc(O)cc1` [HPP, 4-Hydroxyphenylpyruvate], for which the figures for the IC50 in experiment [1] and in experiment [5] were 516 µM and 48.4 µM, respectively.

With `O=C(O)C(=O)Cc1c[nH]c2ccccc12` [IPA, indole-3-pyruvate], the IC50 in experiment [3] was 241 µM; in experiment [5], 58 µM and 58.3 µM.

Consider `N[C@@H](Cc1c[nH]c2ccccc12)C(=O)O` [Trp, tryptophan], for which the “IC50 of effector molecule on DHS3^G1” value in experiment [2] was “Not inhibited”. Also, the “IC50 of effector molecule on DHS3^H1” value in experiment [4] is “Not inhibited”.
